The numbers were not newly measured in patent US12174205B2, “Phosphatidylethanolamine-specific probes” (Northwestern University, priority 2014, dated 2024), which cites them from elsewhere.

The conditions of the data set: at micromolar concentration: membrane distortion, PE translocation.

cinnamycin: the cytotoxicity entry is on record as “exhibit cytotoxicity”.
